# Assay results as given in US20240091220A1, “METHODS OF MODULATING NEURONAL AND OLIGODENDROCYTE SURVIVAL” (priority 2021, published 2024).
# Entries after “also recorded” stand apart in the source; their conditions may differ.
# Columns and labels:
# [1] = tested on: reactive ACM-mediated toxicity; details: previous data, Liddelow et al. 2017; cited from earlier work
# oligodendrocytes [2] = details: dose curve, live/dead analysis 24 hours after treatment
# Protocol: Oligodendrocytes: Oligodendrocyte lineage cells were purified by immunopanning from P6 Sprague-Dawley forebrains and cultured as previously described (Dugas and Emery, “Purification of Oligodendrocyte Precursor Cells from Rat Cortices by Immunopanning,” Cold Spring Harbor Protocols 2013(8):745-758 (2013), which is hereby incorporated by reference in its entirety). Cortices were blunt dissected and enzymatically digested using papain at 37° C. and 10% CO2. Tissue was then mechanically triturated with a 5 mL serological pipette at room temperature to generate a single-cell suspension. […]
# All experiments began with identically plated cells that were randomly chosen for treatment, ensuring identical starting cell numbers for control and experimental conditions. […] Identical acquisition and illumination conditions were used within each experiment and cells were counted in ImageJ using custom macros, which involved background subtraction and thresholding following by particle counting. […]
# oligodendrocytes [3] = test: Oligodendrocyte live/dead survival with ethoxyquin, with or without reactive ACM; type: cell-based, rat; details: for Slope of simple linear regression of oligodendrocyte survival on ethoxyquin dose: increasing doses of ethoxyquin in DMSO
# Protocol: For collection of astrocyte conditioned media, plates of astrocyte cultures from identical preps were randomly chosen as control or reactive. Reactive astrocyte cultures were treated for 24 hours with IL1α (3 ng/ml, Sigma, 13901), TNF (30 ng/ml, Cell Signaling Technology, 8902SF), and C1q (400 ng/ml, MyBioSource, MBS143105). Control and reactive astrocyte conditioned media (ACM) was collected and spun at ˜2000 g for 5 minutes to remove any dead cells or cell debris. ACM was then concentrated in a Vivaspin 30 kDa centrifugation tubes (Cytiva 28932361) to ˜10× concentration for subsequent experiments. The protein concentration of ACM was determined by Bradford Assay (Sigma-B6916) and used to ensure identical concentrations of reactive versus control ACM were used for further experiments. ACM was presented at a dose of 50 μg/ml in all experiments not otherwise denoted with an alternative concentration.
# Z1 (Zeiss) or on an Incucyte ZOOM (Essen Bioscience).
compound,measurement,setting,value
CCOC(=O)c1ccc(NC2CCCCC2)c(N)c1 [Ferrostatin-1],Effect on reactive ACM-mediated (astrocyte) toxicity,[1],does not affect; also recorded: has no effect
CCCCCCCCCCCCCCCCCCCC(=O)OC[C@H](COP(=O)([O-])OCC[N+](C)(C)C)OC(=O)CCCCCCCCCCCCCCCCCCC [phosphatidylcholines (20:0)],Toxicity to oligodendrocytes (survival),oligodendrocytes [2],toxic to oligodendrocytes in a dose-dependent fashion
CCOc1ccc2c(c1)C(C)=CC(C)(C)N2 [ethoxyquin],Slope of simple linear regression of oligodendrocyte survival on ethoxyquin dose,oligodendrocytes [3]; with 30 μg/ml reactive ACM,−0.000001788
same,Slope of simple linear regression of oligodendrocyte survival on ethoxyquin dose,oligodendrocytes [3]; without reactive ACM,−0.0000025
same,Effect on toxicity of reactive ACM to oligodendrocytes,oligodendrocytes [3]; with reactive ACM,had no effect; also recorded: did not impact the toxicity of reactive ACM
same,Effect on oligodendrocyte survival when treated in isolation,oligodendrocytes [3]; without reactive ACM,did not impact cell survival
